Laboratory results reported in patent publication US8404650B2, “Methods of treating cancer with doxazolidine and prodrugs thereof” (priority 2005, dated 2013).
Where two headings read alike, the source gives them in different places.

Assays:
MCF-7 = assay: Growth inhibition of MCF-7 sensitive breast cancer cells (colony formation, crystal violet); type: cell-based, human; settings: for IC50: Homo sapiens
Procedure: (§1) In vitro Activity. […] This cell suspension was dispensed in 200 μL aliquots (1000 cells/well) into the inside wells of 96-well tissue culture plates. Outside wells contained 200 μL of media. […] The medium was replaced with 90 μL of growth medium prior to addition of the drug. Doxaz was dissolved in DMSO at concentrations ranging from 50 μM to 1 mM. […] Serial dilutions (1:3 and 1:10) were made in sterile DMSO to yield seven solutions of decreasing drug concentration at 100× the respective working concentrations. […] Additionally, two lanes were treated with 10 μL of growth medium containing 10% sterile DMSO and one lane was treated with 90 μL of 1.5 M Tris HCl. […]
(§2) Cell growth inhibition experiments initially focused on MCF-7, MCF-7/Adr, SK-HEP-1, and Hep G2 cancer cells as well as rat cardiomyocytes as a measure of cardiotoxicity and Vero cells (green monkey kidney cells) as an additional measure of normal cell toxicity.
(§3) Activity of plasmin-activated prodrugs.
(§4) A more thorough characterization of the growth inhibition of a variety of cancer cells as well as rat cardiomyocytes by Formula IV (aFK-PABC-Doxaz) was evaluated in comparison with inhibition of growth by Doxaz, Dox and aFK-PABC-Dox. Cells were treated with drug for 3 h and colony growth was measured at 3 to 5 days when cells reached about 80% confluence. […] The breast cancer cell lines represent the multi-drug resistant (MDR) phenotype with MCF-7/Adr cells and a cell line that is transfected with the gene for urokinase plasminogen activator (uPA), the primary enzyme responsible for cleavage of plasminogen to plasmin. Rat cardiomyocytes served as a model for comparison of drug cardiotoxicity.

MCF-7/Adr = assay: Growth inhibition of multidrug resistant MCF-7/Adr breast cancer cells (crystal violet); type: cell-based; settings: for IC50: Homo sapiens, NCI/ADR-RES
Procedure: as §1, §2, §3, §4

DU-145 = assay: Growth inhibition of DU-145 prostate cancer cells; type: cell-based; settings: for IC50: Homo sapiens
Procedure: as §1
(§5) SHP-77 small cell lung cancer cells were also of interest because they express modest amounts of both enzymes. Inhibition of the growth of cardiomyocytes was used as a measure of cardiotoxicity, and inhibition of the growth of Vero cells, green monkey kidney cells, was again used as another measure of toxicity to normal cells.
as §4, with “Cells were treated with drug for 3 h and colony growth was measured at 3 to 5 days when cells reached about 80% confluence.” left out

SK-HEP-1 = assay: Growth inhibition of SK-HEP-1 liver cancer cells; type: cell-based, human; settings: for IC50: Homo sapiens, SK-HEP1
Text: (§6) Cell growth inhibition experiments initially focused on MCF-7, MCF-7/Adr, SK-HEP-1, and Hep G2 cancer cells as well as rat cardiomyocytes as a measure of cardiotoxicity and Vero cells (green monkey kidney cells) as an additional measure of normal cell toxicity. […]

Hep G2 = assay: Growth inhibition of Hep G2 liver cancer cells; type: cell-based, human; settings: for IC50: Homo sapiens, HepG2
Text: as §6

Vero cells = assay: Growth inhibition of Vero cells as a measure of normal cell toxicity (MTT); type: cell-based, green monkey; settings: for IC50: Chlorocebus sabaeus, Vero
Text: as §2, §5

MCF-7/Adr cells = assay: Drug uptake by MCF-7/Adr cells, flow cytometry of drug fluorescence; type: cell-based; settings: for Drug uptake relative to Doxorubicin: MCF-7/Adr, 500 nM (equivalents), up to 3 h
Procedure: Drug uptake was measured by flow cytometery. Cells were dissociated with trypsin/EDTA, counted, and suspended in growth media to a concentration of 1×10^5 cells/mL. This cell suspension was dispensed in 2.5 mL aliquots into 6-well tissue culture plates. Plates were then incubated for 24 h at 37° C. in a humidified atmosphere of 5% CO2 and 95% air. The growth media was replaced with 2 mL of fresh growth media prior to addition of the drug. Doxaz, DoxF, and Doxorubicin HCl were dissolved in DMSO each at a concentration of 50 μM. The concentration was then corrected by measuring the solution absorbance at 480 nm (ε=11,500 M^−1 cm^−1). Drug solution (20 μL) was added to an individual well and was incubated for 5 min, 15 min, 30 min, 1 h, 2 h or 3 h at 37° C. in a humidified atmosphere of 5% CO2 and 95% air. All drug treatments were performed so all treatment times would end simultaneously. After treatment, culture media was removed, cells washed once with 0.5 mL HBSS, washed once with 0.5 mL trypsin/EDTA, and 0.5 mL trypsin/EDTA was added and cells were incubated for 5 min. After all cells were trypsinized, cells were aspirated with 1.5 mL cold D-PBS (Dulbecco's phosphate buffered saline, no calcium or magnesium) and this solution was added to 3 mL of cold D-PBS (4.5 mL total D-PBS) in a conical vial. Cells were centrifuged at 200 g for 5 min, and D-PBS was decanted off. Cells were washed once more in 5 mL cold D-PBS, centrifuged at 200 g for 5 min and D-PBS was decanted off. […] Cells were analyzed with excitation at 488 nm (15 mW Ar ion laser), with emission monitored between 570 nm and 600 nm. Instrument settings were optimized for the cell line and held constant for all experiments; for the anthracycline fluorescence analysis, 10,000 cells were analyzed for each sample. The data are presented as the mean fluorescence for each condition.
Uptake of pentyl PABC-Doxaz and Dox by multidrug resistant MCF-7/Adr breast cancer cells and SK-HEP-1 liver cancer cells in the presence of fetal bovine serum was determined by flow cytometry using drug fluorescence as a measure of drug in cells.

MDA-MB-435 = assay: Growth inhibition of MDA-MB-435 breast cancer cells; type: cell-based; settings: Homo sapiens
Procedure: (§7) In vitro Activity. […] This cell suspension was dispensed in 200 μL aliquots (1000 cells/well) into the inside wells of 96-well tissue culture plates. Outside wells contained 200 μL of media. […] The medium was replaced with 90 μL of growth medium prior to addition of the drug. Doxaz was dissolved in DMSO at concentrations ranging from 50 μM to 1 mM. […] Serial dilutions (1:3 and 1:10) were made in sterile DMSO to yield seven solutions of decreasing drug concentration at 100× the respective working concentrations. […] Additionally, two lanes were treated with 10 μL of growth medium containing 10% sterile DMSO and one lane was treated with 90 μL of 1.5 M Tris HCl. The cells were incubated at 37° C. for 3 h, at which time the drug solutions were replaced with 200 μL of fresh growth medium.
as §3

cancer cells = assay: Cancer cell growth inhibition, statements over several or unnamed cell lines; type: cell-based
Procedure: as §7, §4

[1] = 24 h drug treatment, crystal violet
[2] = 3 h, read-out: Growth inhibition IC50, MCF-7/Adr, 3 h
[3] = read-out: IC50 value for cell growth inhibition, MCF-7/Adr
[4] = 3 h drug treatment, crystal violet, read-out: Growth inhibition IC50, SK-HEP-1, 3 h (converted)
[5] = 3 h drug treatment, crystal violet, read-out: Growth inhibition IC50, Hep G2, 3 h (converted)
[6] = 3 h drug treatment, read-out: Growth inhibition IC50, Vero, 3 h (converted)
[7] = 24 h drug treatment, read-out: Growth inhibition IC50, Vero, 24 h (converted)
[8] = 3 h, read-out: IC50 MCF-7/Adr + plasmin
[9] = MDA-MB-435, read-out: IC50 MDA-MB-435, top line of the cell
[10] = DU-145, read-out: IC50 DU-145, top line of the cell

CCCCCOC(=O)Nc1ccc(COC(=O)N2COC3C(C)OC(OC4CC(O)(C(=O)CO)Cc5c(O)c6c(c(O)c54)C(=O)c4c(OC)cccc4C6=O)CC32)cc1 (centres unmarked) [Pentyl PABC-Doxaz, Pentyl 4-(N-doxazolidinylcarbonyloxymethyl)phenylcarbamate]
Growth inhibition IC50, MCF-7, 24 h (MCF-7; [1]): −5.6 ± 0.3 log of the molar concentration | Growth inhibition IC50, MCF-7/Adr, 24 h (MCF-7/Adr; [1]): −6.5 ± 0.06 log of the molar concentration | Cell growth inhibition IC50, DU-145 (DU-145; [1]): −6.7 ± 0.07 log of molar concentrations | Growth inhibition IC50, SK-HEP-1, 24 h (SK-HEP-1; [1]): −6.0 ± 0.06 log of the molar concentration | Growth inhibition IC50, Hep G2, 24 h (Hep G2; [1]): −7.3 ± 0.2 log of the molar concentration | Growth inhibition IC50, Vero, 24 h (Vero cells; 24 h drug treatment): −6.0 ± 0.04 log of the molar concentration | Uptake relative to Dox, MCF-7/Adr (MCF-7/Adr cells; in the presence of fetal bovine serum): taken up much better

COc1cccc2c1C(=O)c1c(O)c3c(c(O)c1C2=O)C[C@@](O)(C(=O)CO)C[C@@H]3O[C@H]1C[C@@H]2NCO[C@@H]2[C@H](C)O1 [Doxaz, Doxazolidine]
IC50 (MCF-7; MCF7, 3 h, read-out: Growth inhibition IC50, MCF-7, 3 h): 3.16 nM | IC50 (MCF-7; MCF7, read-out: IC50 MCF-7): 3 ± 0.2 nM | IC50 (MCF-7/Adr; [2]): 3.16 nM | IC50 (MCF-7/Adr; read-out: IC50 MCF-7/Adr): 3 ± 0.2 nM | IC50 (MCF-7/Adr; [3]): ~2 nM | IC50 (MDA-MB-435; MDA-MB-435, 3 h drug treatment, growth at 5 days, read-out: IC50 MDA-MB-435): 7 ± 0.3 nM | IC50 (DU-145; DU-145, read-out: IC50 DU-145): 4 ± 0.6 nM | IC50 (SK-HEP-1; [4]): 3.98 nM | IC50 (Hep G2; [5]): 10 nM | IC50 (Vero cells; [6]): 6.31 nM | IC50 (Vero cells; [7]): 7.94 nM | More toxic than Doxorubicin to multidrug-resistant cancer cells (cancer cells; variety of multidrug-resistant cancer cells): 500-10,000 fold | Drug uptake relative to Doxorubicin (MCF-7/Adr cells): significantly more

COc1cccc2c1C(=O)c1c(O)c3c(c(O)c1C2=O)C[C@@](O)(C(=O)CO)C[C@@H]3OC1CC2C(OCN2CN2COC3C(C)OC(O[C@H]4C[C@](O)(C(=O)CO)Cc5c(O)c6c(c(O)c54)C(=O)c4c(OC)cccc4C6=O)CC32)C(C)O1 (some centres unmarked) [DoxF, Doxoform, reference compound]
IC50 (MCF-7; MCF7, 3 h, read-out: IC50 MCF-7): 2 nM | IC50 (MCF-7/Adr; 3 h, read-out: IC50 MCF-7/Adr): 1 nM | IC50 (MCF-7/Adr; [3]): ~2 nM | IC50 (DU-145; DU-145, 3 h, read-out: IC50 DU-145): 3 nM | IC50 lower than doxorubicin, SK-HEP-1 (SK-HEP-1): more than 25 fold | IC50 lower than doxorubicin, Hep-G2 (Hep G2): more than 25 fold | Drug uptake relative to Doxorubicin (MCF-7/Adr cells): significantly more

COc1cccc2c1C(=O)c1c(O)c3c(c(O)c1C2=O)C[C@@](O)(C(=O)CO)C[C@@H]3O[C@H]1C[C@H](N)[C@H](O)[C@H](C)O1 [Doxorubicin, reference compound]
IC50 (MCF-7; MCF7, 3 h, read-out: Growth inhibition IC50, MCF-7, 3 h, 3 h drug treatment, crystal violet): 316 nM | IC50 (MCF-7; MCF7, 3 h, read-out: IC50 MCF-7 + plasmin, + plasmin (15 μg/ml)): 300 nM | IC50 (MCF-7; MCF7, 24 h, read-out: Growth inhibition IC50, MCF-7, 24 h, 24 h drug treatment, crystal violet): 12.6 nM | IC50 (MCF-7; MCF7, read-out: IC50 MCF-7, 3 h drug treatment, growth at 5 days): 200 ± 26 nM | IC50 (MCF-7; MCF7, read-out: IC50 MCF-7, no plasmin or aprotinin added): 300 nM | IC50 (MCF-7/Adr; [2]): 6310 nM | IC50 (MCF-7/Adr; [8]): 20000 nM | IC50 (MCF-7/Adr; 24 h, read-out: Growth inhibition IC50, MCF-7/Adr, 24 h): 2510 nM | IC50 (MCF-7/Adr; read-out: IC50 MCF-7/Adr): 10000 nM | IC50 (MDA-MB-435; MDA-MB-435, read-out: IC50 MDA-MB-435): 150 ± 14 nM | IC50 (MDA-MB-435; [9]): 150 nM | IC50 (DU-145; DU-145, 24 h, read-out: Cell growth inhibition IC50, DU-145): 31.6 nM | IC50 (DU-145; DU-145, read-out: IC50 DU-145): 240 nM | IC50 (DU-145; [10]): 300 nM | IC50 (SK-HEP-1; [4]): 100 nM | IC50 (SK-HEP-1; 24 h drug treatment, crystal violet, read-out: Growth inhibition IC50, SK-HEP-1, 24 h (converted)): 50.1 nM | IC50 (Hep G2; [5]): 200 nM | IC50 (Hep G2; 24 h drug treatment, crystal violet, read-out: Growth inhibition IC50, Hep G2, 24 h (converted)): 31.6 nM | IC50 (Vero cells; [6]): 1000 nM | IC50 (Vero cells; [7]): 501 nM | Effect of added plasmin on activity (cancer cells; 0.01 unit/mL of plasmin): no effect

COc1cccc2c1C(=O)c1c(O)c3c(c(O)c1C2=O)C[C@@](O)(C(=O)CO)C[C@@H]3O[C@H]1C[C@H]2[C@H](OCN2C(=O)OCc2ccc(NC(=O)[C@H](CCCCN)NC(=O)[C@H](Cc3ccccc3)NC(=O)[C@@H](C)N)cc2)[C@H](C)O1 [Formula IV, D-Ala-L-Phe-L-Lys-p-aminobenzyloxycarbonyl-Doxaz]
IC50 (MCF-7; MCF7, 3 h, read-out: IC50 MCF-7 + plasmin): 5 nM | IC50 (MCF-7; MCF7, read-out: IC50 MCF-7): 50 nM | IC50 (MCF-7/Adr; [8]): 10 nM | IC50 (MCF-7/Adr; read-out: IC50 MCF-7/Adr): 100 nM | IC50 (MDA-MB-435; [9]): 240 nM | IC50 (MDA-MB-435; MDA-MB-435, + plasmin, second stacked value, read-out: IC50 MDA-MB-435 + plasmin): 40 nM | IC50 (DU-145; DU-145, read-out: IC50 DU-145 + plasmin): 6 nM | IC50 (DU-145; [10]): 160 nM | Increase of activity on addition of plasminogen (cancer cells; 0.01 unit/mL plasminogen, on average): 0.3 log | Growth inhibition better than aFK-PABA-Dox (cancer cells; most of the cancer cells, 3 h treatment): ≥ 0.5 log | IC50 (cancer cells; read-out: Cancer cell growth inhibition IC50 in the presence of plasmin): 5 nM
